{"source": "patent US10954276B2", "about": "“Enzyme-based protein separation and enrichment from soy meal, wheat meal, and other protein-rich materials derived from plant seeds, fruits and other biomass” (THE UNIVERSITY OF AKRON, priority 2012, dated 2021)", "key": {"bacterial growth": {"system": "bacterial growth", "assay": "Preservatives against bacterial growth during soybean meal enzyme hydrolysis (pH profile)", "type": "cell-based", "conditions": "preservative 2 g/L, 50° C., initial pH 4.8", "method": "Systems that were considered in this section are identified on Table 16. All the systems contain 10 g of soybean meal. The enzyme hydrolysis was performed in 250 ml Erlenmeyer flasks which were agitated in orbital shaker at 250 rpm and at 50° C.\nFor control system, only water was added (no enzyme was added). For non-sterilized system, 10 g of soybean meal was mixed with 4 ml of enzyme broth and about 70 ml DI water. In the case of liquid autoclave system, 10 g of soybean meal was mixed with about 40 ml DI water and was autoclaved for 15 min. After autoclaving, an additional 30 ml of DI water (sterile) and 4 ml of enzyme broth were added. For vacuum autoclave systems, 10 g of soybean meal was autoclaved dry under vacuum cycle in the autoclave with no water for 15 and 45 min, respectively. After the autoclave cycle, 4 ml of enzyme broth and an additional 30 ml of DI water (sterile) was added. In case the sodium benzoate and sodium nitrite systems, 10 g of soybean meal was mixed with 2 g/L of either sodium benzoate or sodium nitrite, enzyme broth and DI water. There was no autoclaving or heating step used in these preservatives systems. The activity of the enzymes in the broth used for these experiments is shown on Table 17. The pH of all of the systems was adjusted to 4.8. Samples were taken periodically for the measurement of reducing sugars."}, "[1]": {"system": "bacterial growth present as spores in the soy flour", "assay": "Sodium benzoate concentration to inhibit bacterial growth in soy flour hydrolysis", "type": "cell-based", "conditions": "soy flour enzyme hydrolysis", "method": "Sodium benzoate (Na.B) was used to inhibit the bacterial growth present as spores in the soy flour that was being used for enzyme hydrolysis enrichment of the soy proteins. Different sodium benzoate concentrations were studied to determine the best concentration of sodium benzoate to inhibit bacterial growth. It was determined that Na.B level of 2 g/L was effective. The hydrolysate byproduct of enzyme hydrolysis of the soy flour having different sugars was intended to be used for arabitol production using Debaryomyces hansenii. In order for this enzyme hydrolysate to be suitable for arabitol production, however, the sodium benzoate must be removed. Accordingly, the maximum concentration that could remain in the hydrolysate that is not inhibitory for D. hansenii growth was determined by this MIC of Na.B test with D. hansenii."}, "Debaryomyces hansenii": {"system": "Debaryomyces hansenii", "assay": "MIC study of benzoic acid for the growth of Debaryomyces hansenii", "type": "cell-based", "method": "D. hansenii was inoculated first in a pre-culture medium with the following medium composition (g/L): Glucose 10, Peptone 5, Malt extract 3 and yeast extract 3. A pre-culture was performed in a 250 ml Erlenmeyer flask with 50 ml culture volume in an orbital shaker at 250 rpm and at a temperature of 30° C. After 36 hours, 5% inoculum is transferred into systems with the different benzoic acid concentrations shown in Table 11 and the medium composition shown in Table 12, each system in a 250 ml Erlenmeyer flask with a 50 ml working volume. These flasks were placed in an orbital shaker at 250 rpm and a temperature of 30° C. Samples were taken every 24 h for 3 days and the pH and cell concentrations were measured and recorded.\nCell growth was measured as optical density (OD) by measuring the absorbance of the washed cells at 610 nm with UV-vis spectrophotometer. A known amount of sample was centrifuged at 8000 rpm for 10 min and the supernatant was separated and saved for further analysis. Cell pellet was washed with DI water and centrifuge again under same conditions. Cell pellet was dispersed in water and the absorbance was measured at 610 nm."}, "[2]": {"system": "another strain of Debaryomyces hansenii", "conditions": "cited from earlier work"}}}
{"smiles": "O=NO", "note": "[sodium nitrite]", "values": [{"measurement": "bacterial growth judged from pH profile", "setting": "bacterial growth", "result": "absence of bacterial growth"}]}
{"smiles": "O=C([O-])c1ccccc1.[Na+]", "note": "[sodium benzoate, Sodium benzoate]", "values": [{"measurement": "level effective to inhibit bacterial growth", "setting": "[1]", "result": 2, "unit": "g/L"}, {"measurement": "bacterial growth judged from pH profile", "setting": "bacterial growth", "result": "absence of bacterial growth"}]}
{"smiles": "O=C(O)c1ccccc1", "note": "[Benzoic acid]", "values": [{"measurement": "MIC", "setting": "Debaryomyces hansenii; Debaryomyces hansenii, read-out: MIC against the growth of D. hansenii", "result": 250, "unit": "µg/mL"}, {"measurement": "Specific growth rate (μ),", "setting": "Debaryomyces hansenii; benzoic acid 0.01 g/L", "result": 0.089, "unit": "h⁻¹"}, {"measurement": "effect on D. hansenii growth", "setting": "Debaryomyces hansenii; benzoic acid 0.01 g/L", "result": "very little inhibitory effect"}, {"measurement": "Specific growth rate (μ),", "setting": "Debaryomyces hansenii; benzoic acid 0.025 g/L", "result": 0.082, "unit": "h⁻¹"}, {"measurement": "Specific growth rate (μ),", "setting": "Debaryomyces hansenii; benzoic acid 0.05 g/L", "result": 0.079, "unit": "h⁻¹"}, {"measurement": "Specific growth rate (μ),", "setting": "Debaryomyces hansenii; benzoic acid 0.10 g/L", "result": 0.075, "unit": "h⁻¹"}, {"measurement": "Specific growth rate (μ),", "setting": "Debaryomyces hansenii; benzoic acid 0.25 g/L", "result": 0.022, "unit": "h⁻¹"}, {"measurement": "cell growth measured as OD", "setting": "Debaryomyces hansenii; benzoic acid 0.25 g/L", "result": "almost no cell growth"}, {"measurement": "MIC concentration", "setting": "[2]", "result": "400 to 500", "unit": "µg/mL"}]}
